Results on 54 compounds are retold here after patent US20100022542A1, “COMPOUNDS EXHIBITING THROMBOPOIETIN RECEPTOR AGONISM” (Shionogi & Co., Ltd., priority 2000, published 2010).

The experiment deals with T1, human TPO receptor (hTPOR) (Homo sapiens, UniProt P40238).
T1 construct: expressed in transfected cells; host or cells: BaF-B03 (murine IL-3 dependent cell line)
T1 sequence (P40238 26-635): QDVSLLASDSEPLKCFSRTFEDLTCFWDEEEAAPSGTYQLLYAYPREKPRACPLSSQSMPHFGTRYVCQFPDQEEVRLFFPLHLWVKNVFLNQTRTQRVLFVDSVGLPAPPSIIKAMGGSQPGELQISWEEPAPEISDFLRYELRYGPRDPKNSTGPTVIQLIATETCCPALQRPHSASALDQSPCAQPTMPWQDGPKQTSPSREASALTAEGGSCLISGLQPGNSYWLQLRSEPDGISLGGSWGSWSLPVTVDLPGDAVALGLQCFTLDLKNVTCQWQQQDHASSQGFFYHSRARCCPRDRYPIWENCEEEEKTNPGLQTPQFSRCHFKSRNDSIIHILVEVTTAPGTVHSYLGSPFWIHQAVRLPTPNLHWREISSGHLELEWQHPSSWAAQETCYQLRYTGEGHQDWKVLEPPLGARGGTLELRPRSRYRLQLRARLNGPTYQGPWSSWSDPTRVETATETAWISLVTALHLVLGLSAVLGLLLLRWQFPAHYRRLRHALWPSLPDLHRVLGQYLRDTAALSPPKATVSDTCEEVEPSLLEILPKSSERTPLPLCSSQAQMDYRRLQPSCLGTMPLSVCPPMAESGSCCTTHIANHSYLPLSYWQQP
The experiment in a line: Proliferation of TPO dependent BaF/hTPOR cells, WST-1, thrombopoietic activity ED50 (Test Example 3). Format: cell-based. To be noted: 20 h incubation then WST-1 4 h, absorbance at 450 nm. The text has this:
FIG. 2: The chart represents proliferation of the human TPO dependent cells bearing human TPO receptors by the present invention compound, wherein the x-axis is concentration of the present invention compound, and the y-axis is the absorbance as an indicator of cell proliferation. Open circles indicate a response of human TPO, and closed circles indicate a response of the compound (B-1).
The TPO dependent BaF/hTPOR cell line which was established by introducing human TPO receptor (hTPOR) into BaF-B03 cells according to Collins et al (J. Cell. Physiol., 137:293-298 (1988)) was used to test the thrombopoietic activity of the present compound. The DNA sequences and encoded peptide sequences for human hTPOR have been described by Vigon et al (Proc. Natl. Acad. Sci. USA, 89:5640-5644 (1992)). TPO dose not have any ability to support proliferation of interleukin-3 dependent parental cell line BaF-B03. BAF/hTPOR cells were maintained in RPMI medium and WEHI-3B conditioned medium as a source of murine interleukin-3 (IL-3). These cells were washed and resuspended in RPMI medium without a source of murine IL-3 and seeded into each well of 96-well microtiter plates at a density of 5×10^4 cells per well in the absence or presence of various concentration of hTPO or the present compound. After incubation at 37° C. for 20 hours in the 5% CO2 incubator, 10% WST-1 reagent (Takara Biomedicals, Japan) was added to each wells and the cells were further incubated for 4 hours. Effect of the present compound on the growth of BAF/mTPOR cell line which was established by introducing murine TPO receptor (mTPOR) into BAF-B03 cells is shown in FIG. 3. Table 8 exemplifies the ED50 for tested compounds of the present invention, wherein the ED50 is the half concentration of the concentration showing the maximum thrombopoietic activity.

What is called EC50 is the concentration at which the effect is half-maximal. Low readings indicate higher potency in that assay, high ones lower potency in that assay. Compound `CCOC(=O)/C=C/c1ccc(C(=O)Nc2nc(-c3ccc(Cl)c(Cl)c3)cs2)cc1` [Compound A-3] gave an EC50 of 218 nM.

`O=C(O)/C=C/c1ccc(C(=O)Nc2nc(-c3ccc(Cl)c(Cl)c3)cs2)cc1` [Compound A-4] came in with an EC50 of 124 nM.

`CCOC(=O)C(=Cc1ccc(C(=O)Nc2nc(-c3ccc(Cl)c(Cl)c3)cs2)cc1)CC` [Compound A-5]: the EC50 was determined as 984 nM.

Consider `CCC(=Cc1ccc(C(=O)Nc2nc(-c3ccc(Cl)c(Cl)c3)cs2)cc1)C(=O)O` [Compound A-6], for which it took 248 nM to reach a half-maximal effect (EC50).

`CC(C(=O)O)=C(C)c1ccc(C(=O)Nc2nc(-c3ccc(Cl)c(Cl)c3)cs2)cc1` [Compound A-8] gave an EC50 of 529 nM.

Compound `CCOC(=O)C(C)=Cc1ccc(C(=O)Nc2nc(-c3ccc(F)c(F)c3)cs2)cc1` [Compound A-9] had an EC50 of 504 nM.

On to `CC(=Cc1ccc(C(=O)Nc2nc(-c3ccc(F)c(F)c3)cs2)cc1)C(=O)O` [Compound A-10], for which it took 365 nM to reach a half-maximal effect (EC50).

`CCOC(=O)C(Cl)=Cc1ccc(C(=O)Nc2nc(-c3ccc(Cl)c(Cl)c3)cs2)cc1` [Compound A-11] gave an EC50 of 33.5 nM.

On to `O=C(O)/C(Cl)=C/c1ccc(C(=O)Nc2nc(-c3ccc(Cl)c(Cl)c3)cs2)cc1` [Compound A-14], for which a half-maximal effect (EC50) was put at 17 nM.

`C/C(=C\c1ccc(C(=O)Nc2nc(-c3cccc(F)c3)cs2)cc1)C(=O)O` [Compound A-18] returned an EC50 of 132 nM.

`CCOC(=O)/C(C)=C/c1ccc(C(=O)Nc2nc(-c3cccc(OC(F)(F)F)c3)cs2)cc1` [Compound A-19] showed a 50% effective concentration (EC50) of 170 nM.

`C/C(=C\c1ccc(C(=O)Nc2nc(-c3cccc(OC(F)(F)F)c3)cs2)cc1)C(=O)O` [Compound A-20]: the midpoint of the response, the EC50, lay at 610 nM.

`CCOC(=O)/C(C)=C/c1ccc(C(=O)Nc2nc(-c3ccc(F)cc3)cs2)cc1` [Compound A-23] displayed an EC50 of 337 nM.

Take `C/C(=C\c1ccc(C(=O)Nc2nc(-c3ccc(F)cc3)cs2)cc1)C(=O)O` [Compound A-24]: the response was half-maximal at 288 nM (EC50).

`CCOC(=O)/C(C)=C/c1ccc(C(=O)Nc2nc(-c3ccc(C(F)(F)F)cc3)cs2)cc1` [Compound A-25] gave an EC50 of 150 nM.

The compound `C/C(=C\c1ccc(C(=O)Nc2nc(-c3ccc(C(F)(F)F)cc3)cs2)cc1)C(=O)O` [Compound A-26] returned an EC50 of 98 nM.

Consider `CCOC(=O)/C(C)=C/c1ccc(C(=O)Nc2nc(-c3cccc(C(F)(F)F)c3)cs2)cc1` [Compound A-27], for which it took 193 nM to reach a half-maximal effect (EC50).

`C/C(=C\c1ccc(C(=O)Nc2nc(-c3cccc(C(F)(F)F)c3)cs2)cc1)C(=O)O` [Compound A-28] had an EC50 of 99 nM.

Consider `CCOC(=O)/C(Cl)=C/c1ccc(C(=O)Nc2nc(-c3cccc(F)c3)cs2)cc1` [Compound A-29], for which the EC50 turned out to be 289 nM.

In turn, `O=C(O)/C(Cl)=C/c1ccc(C(=O)Nc2nc(-c3cccc(F)c3)cs2)cc1` [Compound A-30] displayed an EC50 of 274 nM.

`CCOC(=O)/C(Cl)=C/c1ccc(C(=O)Nc2nc(-c3cccc(OC(F)(F)F)c3)cs2)cc1` [Compound A-31] came in with an EC50 of 56 nM.

For `O=C(O)/C(Cl)=C/c1ccc(C(=O)Nc2nc(-c3cccc(OC(F)(F)F)c3)cs2)cc1` [Compound A-32], the EC50 was determined as 40 nM.

`CCOC(=O)/C(Cl)=C/c1ccc(C(=O)Nc2nc(-c3ccc(F)c(F)c3)cs2)cc1` [Compound A-35] returned an EC50 of 96 nM.

The compound `O=C(O)/C(Cl)=C/c1ccc(C(=O)Nc2nc(-c3ccc(F)c(F)c3)cs2)cc1` [Compound A-36] registered an EC50 of 95 nM.

`CCOC(=O)/C(Cl)=C/c1ccc(C(=O)Nc2nc(-c3ccc(F)cc3)cs2)cc1` [Compound A-37] gave an EC50 of 96 nM.

Regarding `O=C(O)/C(Cl)=C/c1ccc(C(=O)Nc2nc(-c3ccc(F)cc3)cs2)cc1` [Compound A-38], the midpoint of the response, the EC50, lay at 245 nM.

Compound `CCOC(=O)/C(Cl)=C/c1ccc(C(=O)Nc2nc(-c3ccc(C(F)(F)F)cc3)cs2)cc1` [Compound A-39] returned an EC50 of 44 nM.

Take `O=C(O)/C(Cl)=C/c1ccc(C(=O)Nc2nc(-c3ccc(C(F)(F)F)cc3)cs2)cc1` [Compound A-40]: the EC50 was found to be 47 nM.

Compound `CCOC(=O)/C(Cl)=C/c1ccc(C(=O)Nc2nc(-c3cccc(C(F)(F)F)c3)cs2)cc1` [Compound A-41] registered an EC50 of 39 nM.

Take `O=C(O)/C(Cl)=C/c1ccc(C(=O)Nc2nc(-c3cccc(C(F)(F)F)c3)cs2)cc1` [Compound A-42]: the EC50 turned out to be 50 nM.

Compound `O=C(O)/C(F)=C/c1ccc(C(=O)Nc2nc(-c3ccc(Cl)c(Cl)c3)cs2)cc1` [Compound A-43] came in with an EC50 of 71 nM.

Compound `O=C(O)/C(F)=C/c1ccc(C(=O)Nc2nc(-c3cccc(C(F)(F)F)c3)cs2)cc1` [Compound A-44] registered an EC50 of 227 nM.

Regarding `O=C(O)C(F)=Cc1ccc(C(=O)Nc2nc(-c3cccc(OC(F)(F)F)c3)cs2)cc1` [Compound A-45], a half-maximal effect (EC50) was put at 203 nM.

Consider `O=C(O)C(F)=Cc1ccc(C(=O)Nc2nc(-c3ccc(C(F)(F)F)cc3)cs2)cc1` [Compound A-46], for which the EC50 stood at 263 nM.

`O=C(O)/C(Cl)=C/c1ccc(C(=O)Nc2nc(-c3ccc(-c4ccccc4)cc3)cs2)cc1` [Compound A-47] showed an EC50 of 512 nM.

In the case of `CC(C)(C)c1ccc(-c2csc(NC(=O)c3ccc(/C=C(\Cl)C(=O)O)cc3)n2)cc1` [Compound A-48], a half-maximal response (EC50) required 473 nM.

Compound `CCCCCc1ccc(-c2csc(NC(=O)c3ccc(/C=C(\Cl)C(=O)O)cc3)n2)cc1` [Compound A-49] registered an EC50 of 116 nM.

Compound `O=C(O)/C(Cl)=C/c1ccc(C(=O)Nc2nc(-c3ccccc3F)cs2)cc1` [Compound A-50] registered an EC50 of 113 nM.

`O=C(O)/C(Cl)=C/c1ccc(C(=O)Nc2nc(-c3c(F)cccc3F)cs2)cc1` [Compound A-51] returned an EC50 of 568 nM.

Turning to `COc1cccc(-c2csc(NC(=O)c3ccc(/C=C(\Cl)C(=O)O)cc3)n2)c1` [Compound A-52], the EC50 was determined as 425 nM.

Consider `O=C(O)/C(Cl)=C/c1ccc(C(=O)Nc2nc(-c3cccc(-c4ccccc4)c3)cs2)cc1` [Compound A-54], for which the EC50 was 65 nM.

For the compound `CCCCc1cccc(-c2csc(NC(=O)c3ccc(/C=C(\Cl)C(=O)O)cc3)n2)c1` [Compound A-55], the EC50 was found to be 37 nM.

`O=C(O)/C(Cl)=C/c1ccc(C(=O)Nc2nc(-c3ccc(F)cc3F)cs2)cc1` [Compound A-56] returned an EC50 of 66 nM.

With `O=C(O)/C(Cl)=C/c1ccc(C(=O)Nc2nc(-c3cccc(C(F)(F)F)c3F)cs2)cc1` [Compound A-57], the EC50 was determined as 19 nM.

`O=C(O)/C(Cl)=C/c1ccc(C(=O)Nc2nc(-c3cc(F)ccc3F)cs2)cc1` [Compound A-58]: the concentration for a half-maximal effect (EC50) was 497 nM.

Consider `CCCCOc1ccc(-c2csc(NC(=O)c3ccc(/C=C(\Cl)C(=O)O)cc3)n2)cc1` [Compound A-59], for which the response was half-maximal at 164 nM (EC50).

In turn, `O=C(O)/C(Cl)=C/c1ccc(C(=O)Nc2nc(-c3ccc(C(F)(F)F)cc3F)cs2)cc1` [Compound A-60] returned an EC50 of 23 nM.

For the compound `COc1ccc(-c2csc(NC(=O)c3ccc(/C=C(\Cl)C(=O)O)cc3)n2)c(F)c1` [Compound A-61], the EC50 is 207 nM.

In turn, `O=C(O)/C(Cl)=C/c1ccc(C(=O)Nc2nc(-c3cc(F)c(F)cc3F)cs2)cc1` [Compound A-62] gave an EC50 of 101 nM.

Compound `O=C(O)/C(Cl)=C/c1ccc(C(=O)Nc2nc(-c3ccc(F)c(Br)c3)cs2)cc1` [Compound A-63] came in with an EC50 of 25 nM.

As to `CC(C)Cc1ccc(-c2csc(NC(=O)c3ccc(/C=C(\Cl)C(=O)O)cc3)n2)cc1` [Compound A-64], the EC50 came out at 204 nM.

For the compound `O=C(O)/C(Cl)=C/c1ccc(C(=O)Nc2nc(-c3cc(C(F)(F)F)cc(C(F)(F)F)c3)cs2)cc1` [Compound A-65], the EC50 is 28 nM.

Compound `Cn1cc(-c2csc(NC(=O)c3ccc(/C=C(\Cl)C(=O)O)cc3)n2)c2ccccc21` [Compound A-66] yielded an EC50 of 211 nM.

`O=C(O)/C(F)=C/c1ccc(C(=O)Nc2nc(-c3ccc(F)cc3)cs2)cc1` [Compound A-68] gave an EC50 of 222 nM.
